Results reported in paper PMC7979765, “trans-Translation inhibitors bind to a novel site on the ribosome and clear Neisseria gonorrhoeae in vivo” (Nature Communications, 2021).
In brackets after ≈: the same amount, converted by molar mass. Several values for one entry are separate records, joined by “and”; a condition that tells them apart may be missing. Equal values may be shown once. Read-outs that look alike come from different tables or passages of the source.

Columns and labels:
CYP1A = experiment: Cyp inhibition assay 4876; type: in vitro ADME, human; conditions: catalog reference 4876
Method: (§1) Several in vitro selectivity assays were performed at Eurofins Discovery Services using established methods and controls that behaved as expected (Supplementary Tables 5 and 6). […] For receptor panel profiling, MBX-4132 was evaluated at 10 μM and activity of >50% (agonist or antagonist; note that negative % inhibition indicates agonism) was scored as active.

[1] = test system: N. gonorrhoeae strain H041; experiment: In vivo efficacy in the gonorrhea mouse model; conditions: for mouse cfu: individual mice, 2.00E+01 = no CFU/mL recovered, limit of detection
Caco-2 permeability = type: in vitro ADME, human; conditions: human
Method: (§2) To evaluate the potential for oral bioavailability, the ability of prioritized compounds to permeate a monolayer of Caco-2 (ATCC HTB-37) intestinal epithelial cells was determined as described. Caco-2 permeability values (Papp) > 1 × 10^−6 cm/sec are predictive of oral bioavailability.

Caco-2 cells = experiment: Caco-2 permeability; type: in vitro ADME, human
Method: as §2

[2] = biological target: T1, Transporter, Serotonin (5-Hyroxytryptamine) (SERT) (Homo sapiens, UniProt P31645); experiment: Receptor Profiling 274030; type: binding
T1 construct: purchased Eurofins Discovery Services 274030
Method: as §1

[3] = biological target: T2, Serotonin (5-hydroxytryptamine) 5-HT2A (Homo sapiens, UniProt P28223); experiment: Receptor Profiling 271650; type: binding
T2 construct: purchased Eurofins Discovery Services (Panlabs safety panel)
Method: as §1

Muscarinic M3 = biological target: T3, Muscarinic M3 (Homo sapiens, UniProt P20309); experiment: Receptor Profiling 252810; type: binding
T3 construct: purchased Eurofins Discovery Services (Panlabs safety panel)
Method: as §1

Muscarinic M2 = biological target: T4, Muscarinic M2 (Homo sapiens, UniProt P08172); experiment: Receptor Profiling 252710; type: binding
T4 construct: purchased Eurofins Discovery Services (Panlabs safety panel)
Method: as §1

[4] = test system: GABAA, Flunitrazepam, Central; experiment: Receptor Profiling 226600; type: binding, rat; conditions: 10 μM
Method: as §1

Streptococcus pneumoniae = experiment: MIC, microbroth dilution; type: cell-based
[5] = test system: Human primary hepatocytes; experiment: Multiplexed cytotoxicity assay (nuclei, ROS, TMRE); type: cell-based
Method: (§3) Multiplexed cytotoxicity assay — Human primary hepatocytes were grown on collagen I coated optical plates, cultured in hepatocytes culture media in a humidified 5% CO2 atmosphere at 37 °C. Cells were incubated in the presence of MBX-4132 at 10 concentrations starting a 100 µM and serially diluted 3.16-fold for 24 h at 37 °C, incubated for 30 min with multiplexed fluorescent dyes (Hoescht, 6-carboxy-2’,7’-dichlorodihydrofluorescein diazetat, and TMRE) and imaged to allow visualization of nuclei, reactive oxygen species generation, and mitochondrial oxidation. A >3.5-fold induction of ROS was considered consistent with formation of ROS and a >2-fold change in TMRE signal indicated an increase or decrease in mitochondrial membrane potential.

[6] = test system: mitochondrial membrane potential (MMP, TMRE signal); experiment: Multiplexed cytotoxicity assay (nuclei, ROS, TMRE); type: cell-based, human; conditions: human, primary hepatocytes, 24 h, read-out: MMP inhibition (fold induction)
Method: as §3

[7] = Multiplexed cytotoxicity assay (nuclei, ROS, TMRE); type: cell-based, human; conditions: human, human primary hepatocytes; for fold induction at 24 h, 1 μM: 1.00E+00 μM; for fold induction at 24 h, 10 μM: 1.00E+01 μM; for fold induction at 24 h, 100 μM: 1.00E+02 μM; for fold induction at 24 h, 0.1 μM: 1.00E-01 μM; for fold induction at 24 h, 0.0101 μM: 1.01E-02 μM; for fold induction at 24 h, 31.6 μM: 3.16E+01 μM; for fold induction at 24 h, 3.17 μM: 3.17E+00 μM; for fold induction at 24 h, 0.317 μM: 3.17E-01 μM; for fold induction at 24 h, 0.0318 μM: 3.18E-02 μM; for fold induction at 24 h, 0.00318 μM: 3.18E-03 μM
Method: as §3

[8] = test system: reactive oxygen species (ROS) generation; experiment: Multiplexed cytotoxicity assay (nuclei, ROS, TMRE); type: cell-based, human; conditions: human, primary hepatocytes, 24 h
Method: as §3

Adenosine A2A = biological target: T5, Adenosine A2A (Homo sapiens, UniProt P29274); experiment: Receptor Profiling 200610; type: binding
T5 construct: purchased Eurofins Discovery Services (Panlabs safety panel)
Method: as §1

Moraxella catarrhalis = experiment: MIC, microbroth dilution; type: cell-based
Cycloogenase COX-2 = biological target: T6, Cycloogenase COX-2 (Homo sapiens, UniProt P35354); experiment: Receptor Profiling 118030; type: biochemical
T6 construct: Eurofins Discovery Services (contract assay) 118030
Method: as §1

[9] = read-out: Mean MMP inhibition (fold induction)
[10] = read-out: Mean ROS (fold induction)

T1 sequence (P31645 whole entry): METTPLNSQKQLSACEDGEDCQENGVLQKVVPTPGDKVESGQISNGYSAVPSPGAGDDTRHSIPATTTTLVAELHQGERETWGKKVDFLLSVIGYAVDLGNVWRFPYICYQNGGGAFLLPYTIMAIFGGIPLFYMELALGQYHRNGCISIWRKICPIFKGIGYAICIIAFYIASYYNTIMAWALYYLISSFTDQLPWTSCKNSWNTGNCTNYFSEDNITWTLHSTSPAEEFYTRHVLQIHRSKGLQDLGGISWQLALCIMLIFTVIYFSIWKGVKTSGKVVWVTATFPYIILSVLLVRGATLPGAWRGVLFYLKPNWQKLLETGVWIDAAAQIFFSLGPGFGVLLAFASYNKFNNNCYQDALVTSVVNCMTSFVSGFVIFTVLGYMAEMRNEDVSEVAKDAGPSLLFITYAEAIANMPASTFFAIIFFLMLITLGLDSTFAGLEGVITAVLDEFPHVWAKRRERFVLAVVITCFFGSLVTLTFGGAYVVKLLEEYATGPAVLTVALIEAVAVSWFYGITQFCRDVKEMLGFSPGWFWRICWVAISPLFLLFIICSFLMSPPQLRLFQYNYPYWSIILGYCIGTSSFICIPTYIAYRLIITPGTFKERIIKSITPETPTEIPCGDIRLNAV
T4 sequence (P08172 whole entry): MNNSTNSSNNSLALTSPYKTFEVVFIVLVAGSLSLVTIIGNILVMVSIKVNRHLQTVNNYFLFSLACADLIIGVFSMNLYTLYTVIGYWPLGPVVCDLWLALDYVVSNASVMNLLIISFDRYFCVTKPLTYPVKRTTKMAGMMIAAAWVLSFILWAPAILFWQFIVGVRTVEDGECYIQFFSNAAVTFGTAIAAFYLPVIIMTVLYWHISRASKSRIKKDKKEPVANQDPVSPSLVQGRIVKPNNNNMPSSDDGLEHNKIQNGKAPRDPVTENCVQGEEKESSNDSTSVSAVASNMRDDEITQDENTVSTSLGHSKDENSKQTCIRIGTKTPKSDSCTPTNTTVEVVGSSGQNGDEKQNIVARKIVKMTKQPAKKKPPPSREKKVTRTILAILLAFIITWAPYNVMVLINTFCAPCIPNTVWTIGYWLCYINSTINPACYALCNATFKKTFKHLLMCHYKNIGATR
T5 sequence (P29274 whole entry): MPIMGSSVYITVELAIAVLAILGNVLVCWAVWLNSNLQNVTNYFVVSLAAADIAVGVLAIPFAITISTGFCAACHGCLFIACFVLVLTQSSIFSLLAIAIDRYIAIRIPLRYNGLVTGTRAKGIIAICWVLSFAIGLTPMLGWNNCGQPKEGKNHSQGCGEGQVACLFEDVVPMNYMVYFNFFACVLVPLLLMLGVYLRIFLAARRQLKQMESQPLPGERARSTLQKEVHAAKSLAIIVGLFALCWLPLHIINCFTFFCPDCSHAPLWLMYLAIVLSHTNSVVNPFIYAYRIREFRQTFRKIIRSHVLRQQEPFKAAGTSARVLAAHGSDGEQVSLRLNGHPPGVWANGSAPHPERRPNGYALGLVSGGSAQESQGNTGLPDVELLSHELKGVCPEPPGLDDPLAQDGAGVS
T6 sequence (P35354 18-604): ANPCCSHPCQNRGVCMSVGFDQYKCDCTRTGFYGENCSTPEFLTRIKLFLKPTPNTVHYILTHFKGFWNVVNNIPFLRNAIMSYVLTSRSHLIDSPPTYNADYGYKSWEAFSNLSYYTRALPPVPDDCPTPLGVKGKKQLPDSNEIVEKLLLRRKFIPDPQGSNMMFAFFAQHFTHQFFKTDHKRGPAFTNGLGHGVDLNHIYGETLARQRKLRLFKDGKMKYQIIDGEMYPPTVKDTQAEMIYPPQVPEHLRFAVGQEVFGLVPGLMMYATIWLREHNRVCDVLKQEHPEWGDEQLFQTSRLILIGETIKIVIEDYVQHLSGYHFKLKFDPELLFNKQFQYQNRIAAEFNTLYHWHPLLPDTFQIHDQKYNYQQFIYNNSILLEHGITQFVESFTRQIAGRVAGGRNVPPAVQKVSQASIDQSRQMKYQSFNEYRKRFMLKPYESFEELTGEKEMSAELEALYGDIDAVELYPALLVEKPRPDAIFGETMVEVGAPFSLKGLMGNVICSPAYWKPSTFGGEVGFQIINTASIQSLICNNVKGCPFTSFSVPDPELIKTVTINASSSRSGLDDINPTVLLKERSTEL
T3 sequence (P20309 whole entry): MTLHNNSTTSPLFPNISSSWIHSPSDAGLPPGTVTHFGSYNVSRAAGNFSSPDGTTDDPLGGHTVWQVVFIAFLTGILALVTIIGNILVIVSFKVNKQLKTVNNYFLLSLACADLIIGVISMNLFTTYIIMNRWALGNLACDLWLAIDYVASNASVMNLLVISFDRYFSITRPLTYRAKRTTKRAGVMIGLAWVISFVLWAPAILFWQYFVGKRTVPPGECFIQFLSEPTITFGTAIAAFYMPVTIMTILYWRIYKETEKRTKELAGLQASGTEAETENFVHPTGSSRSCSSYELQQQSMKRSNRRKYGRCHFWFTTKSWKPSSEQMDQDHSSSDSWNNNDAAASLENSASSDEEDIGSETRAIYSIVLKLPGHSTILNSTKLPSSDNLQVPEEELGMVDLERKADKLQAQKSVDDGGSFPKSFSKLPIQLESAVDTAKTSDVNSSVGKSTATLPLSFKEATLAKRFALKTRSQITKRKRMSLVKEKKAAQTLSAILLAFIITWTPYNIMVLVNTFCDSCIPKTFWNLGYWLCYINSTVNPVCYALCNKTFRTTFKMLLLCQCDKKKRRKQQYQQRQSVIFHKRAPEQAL
T2 sequence (P28223 whole entry): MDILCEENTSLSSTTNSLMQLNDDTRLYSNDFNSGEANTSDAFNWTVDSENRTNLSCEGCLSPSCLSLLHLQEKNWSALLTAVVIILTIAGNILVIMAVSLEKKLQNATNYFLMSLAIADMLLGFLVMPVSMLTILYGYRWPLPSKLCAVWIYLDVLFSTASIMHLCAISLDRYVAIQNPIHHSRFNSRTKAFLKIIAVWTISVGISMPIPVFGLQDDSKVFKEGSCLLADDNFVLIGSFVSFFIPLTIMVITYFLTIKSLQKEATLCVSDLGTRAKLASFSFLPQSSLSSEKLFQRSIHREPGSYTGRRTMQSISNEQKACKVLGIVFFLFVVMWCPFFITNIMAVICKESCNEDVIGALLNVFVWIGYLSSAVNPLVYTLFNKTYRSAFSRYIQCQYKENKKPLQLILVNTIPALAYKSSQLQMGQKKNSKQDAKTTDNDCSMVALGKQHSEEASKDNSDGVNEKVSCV

## O=C(Nc1nnc(-c2ccc(F)cc2)o1)N1CCc2ccccc2C1 [MBX-4132]
CYP1A
  pIC50 (µM) reported: No activity
[1]; Day 5, MBX-4132 10 MPK, 10 mg/kg
  mouse cfu: 2.00E+01 CFU/mL (14×) and 4.20E+02 CFU/mL and 2.61E+03 CFU/mL and 2.38E+03 CFU/mL and 3.50E+05 CFU/mL and 1.00E+06 CFU/mL and 2.60E+02 CFU/mL
[1]; Day 6, MBX-4132 10 MPK, 10 mg/kg
  mouse cfu: 2.00E+01 CFU/mL (16×) and 1.46E+03 CFU/mL and 2.08E+04 CFU/mL and 3.12E+05 CFU/mL and 7.20E+02 CFU/mL
[1]; Day 7, MBX-4132 10 MPK, 10 mg/kg
  mouse cfu: 2.00E+01 CFU/mL (18×) and 1.01E+04 CFU/mL and 1.16E+04 CFU/mL
[1]; Day 8, MBX-4132 10 MPK, 10 mg/kg
  mouse cfu: 2.00E+01 CFU/mL (18×) and 2.20E+02 CFU/mL and 7.00E+02 CFU/mL
[1]; Day -1, MBX-4132 10 MPK, 10 mg/kg
  mouse cfu: 2.16E+06 CFU/mL and 4.97E+06 CFU/mL and 1.86E+05 CFU/mL and 1.04E+06 CFU/mL and 6.26E+06 CFU/mL and 2.02E+05 CFU/mL and 3.50E+04 CFU/mL and 5.46E+03 CFU/mL and 1.66E+05 CFU/mL and 6.46E+05 CFU/mL and 2.23E+05 CFU/mL and 2.90E+05 CFU/mL and 2.17E+05 CFU/mL and 6.58E+03 CFU/mL and 2.34E+06 CFU/mL and 3.20E+02 CFU/mL and 3.63E+06 CFU/mL and 4.88E+05 CFU/mL and 3.45E+06 CFU/mL and 2.43E+06 CFU/mL
[1]; MBX-4132 10 MPK, individual mice 1-20, 1 = cleared on the day, 0 = not cleared, 10 mg/kg
  mice cleared per day: cleared flag: 1 and 0
[1]; MBX-4132 10 MPK, individual mice 1-20, Day 8 with flag 0 = not cleared, 10 mg/kg
  Day (mice cleared per day: day on which the mouse was cleared): 3 and 8 and 6 and 5 and 1 and 4 and 2
[1]; single oral dose 10 mg/kg, by 6 days, N. gonorrhoeae H041
  mice completely cleared of infection: 80%
Caco-2 permeability; Caco-2, A to B, read-out: Caco-2 Papp (A to B)
  Papp A→B: 111 nm/s
Caco-2 permeability; Caco-2, A→B, Average Value, Eurofins, read-out: Caco-2 A→B
  Papp A→B: 111 nm/s
Caco-2 permeability; Caco-2, A→B, Replicate 1/2, Eurofins, read-out: Caco-2 A→B
  Papp A→B: 124 nm/s
Caco-2 permeability; Caco-2, A→B, Reported value, Eurofins, read-out: Caco-2 A→B
  Papp A→B: 111 nm/s
Caco-2 permeability; Caco-2, B to A, read-out: Caco-2 Papp B to A
  Papp B→A: 73 nm/s
Caco-2 permeability; Caco-2, B→A, Average Value, Eurofins, read-out: Caco-2 B→A
  Papp B→A: 73 nm/s
Caco-2 permeability; Caco-2, B→A, Replicate 1/2, Eurofins, read-out: Caco-2 B→A
  Papp B→A: 63.3 nm/s
Caco-2 permeability; Caco-2, B→A, Reported value, Eurofins, read-out: Caco-2 B→A
  Papp B→A: 73 nm/s
Caco-2 cells; A to B
  Caco-2 Papp (A to B): 11 x 10^-6 cms^-1
Caco-2 cells; A→B, Replicate 1/2, Eurofins
  Caco-2 (Papp; x 10-6 cms-1) A→B: 9.9 x 10-6 cms-1
Caco-2 cells; B→A, Replicate 1/2, Eurofins
  Caco-2 (Papp; x 10-6 cms-1) B→A: 8.19 x 10-6 cms-1
[2]
  inhibition at 10 µM: -10%
[3]
  inhibition at 10 µM: 18%
Muscarinic M3
  inhibition at 10 µM: 5%
Muscarinic M2
  inhibition at 10 µM: 7%
[4]
  % inhibition: 3%
Streptococcus pneumoniae; Streptococcus pneumoniae ATCC 49619, replicates
  MIC: 34 mg/L (≈ 100 µM)
Streptococcus pneumoniae; Streptococcus pneumoniae, ATCC49619, strain ATCC 49619, read-out: MIC
  MIC: 34 mg/L (≈ 100 µM)
[5]; 1.00E+00 μM, 24 h
  Attached live cells (%): 106.3%
[5]; 1.00E+00 μM, replicates
  Attached live cells (%): 108.6% and 104.0%
[5]; 1.00E+01 μM, 24 h
  Attached live cells (%): 97.7%
[5]; 1.00E+01 μM, replicates
  Attached live cells (%): 104.3% and 91.1%
[5]; 1.00E+02 μM, 24 h
  Attached live cells (%): 69.6%
[5]; 1.00E+02 μM, replicates
  Attached live cells (%): 78.3% and 60.9%
[5]; 1.00E-01 μM, 24 h
  Attached live cells (%): 96.7%
[5]; 1.00E-01 μM, replicates
  Attached live cells (%): 101.6% and 91.8%
[5]; 1.01E-02 μM, 24 h
  Attached live cells (%): 109.5%
[5]; 1.01E-02 μM, replicates
  Attached live cells (%): 115.4% and 103.6%
[5]; 3.16E+01 μM, 24 h
  Attached live cells (%): 89.5%
[5]; 3.16E+01 μM, replicates
  Attached live cells (%): 92.0% and 87.0%
[5]; 3.17E+00 μM, 24 h
  Attached live cells (%): 99.6%
[5]; 3.17E+00 μM, replicates
  Attached live cells (%): 103.9% and 95.3%
[5]; 3.17E-01 μM, 24 h
  Attached live cells (%): 114.0%
[5]; 3.17E-01 μM, replicates
  Attached live cells (%): 124.2% and 103.8%
[5]; 3.18E-02 μM, 24 h
  Attached live cells (%): 97.5%
[5]; 3.18E-02 μM, replicates
  Attached live cells (%): 106.1% and 88.9%
[5]; 3.18E-03 μM, 24 h
  Attached live cells (%): 105.6%
[5]; 3.18E-03 μM, replicates
  Attached live cells (%): 110.9% and 100.3%
[5]; high concentrations, human hepatocytes
  effect on mitochondrial membrane polarity (in words): no effect
[6]; 1.00E+00 μM
  fold induction at 24 h, 1 μM: 0.9
[6]; 1.00E+01 μM
  fold induction at 24 h, 10 μM: 1.1
[6]; 1.00E-01 μM
  fold induction at 24 h, 0.1 μM: 1.2
[6]; 1.01E-02 μM
  fold induction at 24 h, 0.0101 μM: 1
[6]; 3.16E+01 μM
  fold induction at 24 h, 31.6 μM: 1.1
[6]; 3.17E+00 μM
  fold induction at 24 h, 3.17 μM: 1
[6]; 3.17E-01 μM
  fold induction at 24 h, 0.317 μM: 0.9
[6]; 3.18E-02 μM
  fold induction at 24 h, 0.0318 μM: 0.9
[6]; 3.18E-03 μM
  fold induction at 24 h, 0.00318 μM: 1
[7]; [9]
  fold induction at 24 h, 1 μM: 0.9
  fold induction at 24 h, 10 μM: 1.1
  fold induction at 24 h, 100 μM: 0.8
  fold induction at 24 h, 0.1 μM: 1.2
  fold induction at 24 h, 0.0101 μM: 1
  fold induction at 24 h, 31.6 μM: 1.1
  fold induction at 24 h, 3.17 μM: 1
  fold induction at 24 h, 0.317 μM: 0.9
  fold induction at 24 h, 0.0318 μM: 0.9
  fold induction at 24 h, 0.00318 μM: 1
[7]; [10]
  fold induction at 24 h, 1 μM: 1.2
  fold induction at 24 h, 10 μM: 1.9
  fold induction at 24 h, 100 μM: 9.2
  fold induction at 24 h, 0.1 μM: 1.4
  fold induction at 24 h, 0.0101 μM: 1.4
  fold induction at 24 h, 31.6 μM: 1.3
  fold induction at 24 h, 3.17 μM: 1.1
  fold induction at 24 h, 0.317 μM: 1.2
  fold induction at 24 h, 0.0318 μM: 0.9
  fold induction at 24 h, 0.00318 μM: 3.1
[8]; 1.00E+00 μM
  fold induction at 24 h, 1 μM: 1.2
[8]; 1.00E-01 μM
  fold induction at 24 h, 0.1 μM: 1.4
[8]; 1.01E-02 μM
  fold induction at 24 h, 0.0101 μM: 1.4
[8]; 3.17E+00 μM
  fold induction at 24 h, 3.17 μM: 1.1
[8]; 3.17E-01 μM
  fold induction at 24 h, 0.317 μM: 1.2
[8]; 3.18E-02 μM
  fold induction at 24 h, 0.0318 μM: 0.9
Adenosine A2A
  inhibition at 10 µM: 42%
Moraxella catarrhalis; Moraxella catarrhalis 8716, replicates
  MIC: 0.0332 mg/L (≈ 0.0981 µM)
Moraxella catarrhalis; Moraxella catarrhalis, Moraxella catarrhalis 8716, replicates, read-out: MIC
  MIC: 0.0332 mg/L (≈ 0.0981 µM)
Moraxella catarrhalis; Moraxella catarrhalis, strain 8716, read-out: MIC
  MIC: 0.04 mg/L (≈ 0.118 µM)
Cycloogenase COX-2
  inhibition at 10 µM: 10%
